{
  "source": "patent US9801949B2",
  "about": "“Combinations of albumin-based drug delivery systems” (KTB TUMORFORSCHUNGSGESELLSCHAFT MBH, priority 2012, dated 2017)",
  "key": {"[1]": {"tested_on": "MiaPaCa-2 pancreatic carcinoma xenograft", "settings": "for antitumor efficacy (in words): MiaPaCa-2 xenograft, up to end of experiment (day 43), doses as in Table 1; for Tumor volume (day 43): s.c. MiaPaCa-2 xenografts, i.v. on days 10, 17, 24, dose per Table 1, median initial tumor volume 0.062 cm^3; for toxic death: 7 mice per group, i.v. on days 10, 17, 24, dose per Table 1", "procedure": "In vivo efficacy studies in the MiaPaCa-2 xenograft model were carried out with doxorubicin, the 6-maleimidocaproyl(hydrazone) derivative of doxorubicin (DOXO-EMCH), the albumin-binding prodrug of methotrexate AW054, a combination of the 6-maleimidocaproyl(hydrazone) derivative of doxorubicin (DOXO-EMCH) and the albumin-binding prodrug of methotrexate AW054, doxorubicin, methotrexate and a combination of doxorubicin and methotrexate.\nDOXO-EMCH was dissolved in sterile 10 mM sodium phosphate, 5% D-(+)-glucose (pH 5.8) and the respective dose administered intravenously within 30 minutes after dissolution. All doses of DOXO-EMCH and AW054 administered in the studies are stated in doxorubicin and methotrexate equivalents, respectively. Adrimedac® from medac, Germany, was used as the doxorubicin reference (c=2 mg/mL). Methotrexate (Sodium salt from medac) was used as a stock solution (12.5 mg methotrexate/mL in 5% D-Glucose from Braun, sterile). The stock solution AW054 for intravenous administration was 2.0 mg AW054/mL in 5% D-Glucose from Braun, sterile.\nFor in vivo testing in the MiaPaCa-2 xenograft model, female NMRI: nu/nu mice (Taconic, Denmark) were used. The mice were held in individually ventilaged cages (IVC) under sterile and standardized environmental conditions (25±2° C. room temperature, 50±10% relative humidity, 12 hour light-dark-rhythm). They received autoclaved food and bedding (ssniff, Soest, Germany) and acidified (pH 4.0) drinking water ad libitum. All animal experiments were performed under the auspices of the German Animal Protection Law.\nMiaPaCa-2 cells (5×10^6 cells/mouse) were transplanted subcutaneously (s.c.) into the left flank region of each mouse on day zero. Mice were randomly distributed to the experimental groups (7 mice per group). Treatment was initiated at day 10 when the tumors were grown to a size of ˜60 mm^3. Mice were treated on a weekly schedule with 3×6 mg/kg doxorubicin (MTD), 2×125 mg/kg methotrexate (MTD), 3×24 mg/kg DOXO-EMCH (doxorubicin equivalents) (MTD), 3×20 mg/kg AW054 (methotrexate equivalents) (MTD), and a combination of 3×12 mg/kg DOXO-EMCH and 3×10 mg/kg AW054 or a combination of 3×3 mg/kg doxorubicin and 3×62.5 mg/kg methotrexate. All compounds were injected once a week for three weeks (days 10, 17, 24). The injection volume was 0.2 mU20 g body weight. Tumor size was measured twice weekly with a caliper-like instrument in two dimensions. Individual tumor volumes (V) were calculated by the formula V=(length×[width]^2)/2 and related to the values on the first day of treatment (relative tumor volume, RTV). The experiment was ended on day 43. Statistical analysis was performed with the U-test (Mann and Whitney) with p<0.05. The body weight of mice was determined every 3 to 4 days.\nCombination therapy with doxorubicin and methotrexate was carried out at in a three weekly schedule (i.v.) at half of their maximum tolerated dose (MTD), i.e. 3×3 mg/kg for doxorubicin and 3×62.5 mg/kg methotrexate. Both DOXO-EMCH and AW054 were administered simultaneously (i.v.) in a three weekly schedule at half of their maximum tolerated dose (MTD), i.e. 3×12 mg/kg for DOXO-EMCH (doxorubicin equivalents) and 3×10 mg/kg (methotrexate equivalents) and at their respective MTDs, i.e. 3×24 mg/kg for DOXO-EMCH (doxorubicin equivalents) and 3×20 mg/kg for AW054 (methotrexate equivalents) (see the following Table 1)."}, "[2]": {"tested_on": "several xenograft and orthotopic tumor models", "settings": "cited from earlier work"}, "[3]": {"tested_on": "ovarian carcinoma xenograft model (OVCAR3)", "settings": "cited from earlier work"}, "[4]": {"settings": "conjugate formed with cysteine-34 of albumin; cited from earlier work"}},
  "note": "Marks after values point to notes of the source that are not given here. Numbered stars: 1 amine (or outer) side, 2 acyl side, 3 side chain; on linkers, the order of the positions; unused ones are H or OH. Square brackets hold non-standard residues; d marks the D form. Side chains are listed from the residue outwards. Peptide text beside a SMILES is read from it. * marks the point of attachment. DAMPA = CN(Cc1cnc2nc(N)nc(N)c2n1)c1ccc(C(=O)*)cc1; Hexanoyl(6-maleimido) = O=C1C=CC(=O)N1CCCCCC(=O)*; γGlu = O=C(O)[C@H](CCC(=O)[*:2])N[*:1]",
  "data": [
    {"smiles": "COc1cccc2c1C(=O)c1c(O)c3c(c(O)c1C2=O)CC(O)(C(CO)=NNC(=O)CCCCCN1C(=O)C=CC1=O)CC3OC1CC(N)C(O)C(C)O1", "note": "(centres unmarked) [DOXO-EMCH, 6-maleimidocaproyl(hydrazone) derivative of doxorubicin]", "values": [
      {"measurement": "antitumor efficacy (in words)", "setting": "[1]", "result": "partial remission"},
      {"measurement": "Tumor volume (day 43)", "setting": "[1]", "result": "0.034 ± 0.064* cm^3"},
      {"measurement": "efficacy compared to free doxorubicin", "setting": "[2]", "result": "superior efficacy over free doxorubicin"}
    ]},
    {"smiles": "CN(Cc1cnc2nc(N)nc(N)c2n1)c1ccc(C(=O)N[C@@H](CCC(=O)O)C(=O)O)cc1", "note": "[Methotrexate, methotrexate]", "values": [
      {"measurement": "toxic death", "setting": "[1]", "result": 0},
      {"measurement": "antitumor efficacy (in words)", "setting": "[1]", "result": "only showed moderate antitumor efficacy"},
      {"measurement": "Tumor volume (day 43)", "setting": "[1]", "result": "0.396 ± 0.307* cm^3"}
    ]},
    {"smiles": "COc1cccc2c1C(=O)c1c(O)c3c(c(O)c1C2=O)C[C@@](O)(C(=O)CO)C[C@@H]3O[C@H]1C[C@H](N)[C@H](O)[C@H](C)O1", "note": "[Doxorubicin, doxorubicin]", "values": [
      {"measurement": "toxic death", "setting": "[1]", "result": 0},
      {"measurement": "antitumor efficacy (in words)", "setting": "[1]", "result": "only showed moderate antitumor efficacy"},
      {"measurement": "Tumor volume (day 43)", "setting": "[1]", "result": "0.190 ± 0.125* cm^3"}
    ]},
    {"smiles": "C[C@@H](NC(=O)CCCCCN1C(=O)C=CC1=O)C(=O)N[C@@H](Cc1ccccc1)C(=O)N[C@@H](CCCCN)C(=O)N[C@@H](CCCCNC(=O)CC[C@H](NC(=O)c1ccc(N(C)Cc2cnc3nc(N)nc(N)c3n2)cc1)C(=O)O)C(=O)O", "note": "[AW054, EMC-D-Ala-Phe-Lys-Lys(γ-MTX)-OH] ({Hexanoyl(6-maleimido)}-[dA]FKK([γGlu-DAMPA])-OH)", "values": [
      {"measurement": "toxic death", "setting": "[1]", "result": 0},
      {"measurement": "antitumor efficacy (in words)", "setting": "[1]", "result": "only showed moderate antitumor effects"},
      {"measurement": "Tumor volume (day 43)", "setting": "[1]", "result": "0.264 ± 0.226* cm^3"},
      {"measurement": "efficacy compared to methotrexate", "setting": "[3]", "result": "superior compared to methotrexate"},
      {"measurement": "stability of albumin conjugate in human plasma", "setting": "[4]", "result": "stable in human plasma"}
    ]}
  ]
}
